Results on three compounds are retold here after US20160158376A1 (priority 2013, published 2016).

The nature of series [1]: Solubility assay of the polyconjugate. The conditions noted are these: water, room temperature (22˜25° C.), as active drug. The class given is physicochemical.
The conditions of series [2]: rat, cited from earlier work.
For a further series, the system named is Candida albicans. The series is described as follows: Pharmacodynamic assay, immunodepleted mice infected with Candida albicans. Type of series: in vivo. The conditions noted are these: for Number of animal death: mice (20 per group), tail vein, day 7. From the text: Method: Mice whose immunity was depleted by conventional method (white cell count≦100) were infected with Candida albicans, and randomly divided into eight groups, 20 per group. Mice received the treatment outlined in the following table by injection through the tail vein. […] Continuously monitoring animal survival for seven days, and counting the number of dead mice on day 7.

The conditions of series [3]: mouse; Proffitt et al. 1991; cited from earlier work.
For series [4] the following is noted: cited from earlier work.

Where two headings read alike, the source gives them in different places.

“amphotericin B-hydroxyethyl starch polyconjugate [Preparation 22]”: in series [1], the “solubility (amount of the soluble active drug)” value stood at 0.026%.
Take `CC1O[C@@H](O[C@H]2/C=C/C=C/C=C/C=C/C=C/C=C/C=C/[C@H](C)[C@@H](O)[C@@H](C)[C@H](C)OC(=O)C[C@H](O)C[C@H](O)CC[C@@H](O)[C@H](O)C[C@H](O)C[C@]3(O)C[C@H](O)[C@@H](C(=O)O)[C@H](C2)O3)C(O)C(N)[C@@H]1O` (stereo partly drawn) [amphotericin B]: the median lethal dose (LD50) is 1.6 mg/kg in series [2] (intravenous, Pfizer material safety data sheet); 1.6 mg/kg in series [2] (Proffitt et al. 1991); 2.3 mg/kg in series [3]. Also, the “Number of animal death” value with Candida albicans (1 mg/kg as amphotericin B) is listed as 10 dead; in the series with Candida albicans (2 mg/kg as amphotericin B), 3 dead. In addition, in the series on Candida albicans (mice infected with Candida albicans, survival at day 7, as amphotericin B), the 50% effective dose entry was “about 1 mg/kg”. Also, in series [4], the solubility in water result is “insoluble”.
With “poly-aspartic acid-amphotericin B polyconjugate [Preparation 1]”, the “Number of animal death” value in the series on Candida albicans (0.25 mg/kg as amphotericin B) came out at 5 dead; in the series on Candida albicans (0.5 mg/kg as amphotericin B), 0 dead; in the series with Candida albicans (1 mg/kg as amphotericin B), 0 dead; with Candida albicans (2 mg/kg as amphotericin B) it was 0 dead.

For orientation: LD50 means the dose expected to kill half of the subjects tested.
